For assay [1], the target named is Mitogen-activated protein kinase kinase kinase 2 (Homo sapiens, UniProt Q9Y2U5). In words: Binding affinity to recombinant full-length N-terminal His-FLAG-GST-tagged MAP3K2 (unknown origin) (337 to 620 residues) expressed in baculovirus infected Sf9 insect cells incubated for 1 hr by TR-FRET assay. For orientation: In TR-FRET formats the signal depends on donor and acceptor labels being close together.

For assay [2], the target named is BMP-2-inducible protein kinase (Homo sapiens, UniProt Q9NSY1). In words: Binding affinity to recombinant full-length N-terminal His-FLAG-GST-tagged BMP2K (unknown origin) expressed in baculovirus infected Sf9 insect cells incubated for 1 hr by TR-FRET assay.
In assay [3] the target is Calcium/calmodulin-dependent protein kinase type II subunit beta (Homo sapiens, UniProt Q13554). Kind of assay: Binding affinity to recombinant human full length N-terminal GST-tagged CAMK2B expressed in baculovirus expression system using GS peptide as substrate incubated for 1 hr in presence of calmodulin by TR-FRET assay.
Assay [4] concerns the target Serine/threonine-protein kinase N1 (Homo sapiens, UniProt Q16512). Kind of assay: Binding affinity to recombinant full-length N-terminal His-FLAG-GST-tagged PKN1 (unknown origin) expressed in baculovirus infected Sf9 insect cells incubated for 1 hr by TR-FRET assay.
Assay [5] addresses AMP-activated protein kinase (AMPK) alpha-1/beta-1/gamma-1 (Homo sapiens, UniProt P54619+Q13131+Q9Y478). Kind of assay: Binding affinity to recombinant human full-length GST N-Terminal tagged-AMPK alpha1/N-Terminal GST tagged-AMPK beta1/N-Terminal his-tagged AMPK gamma1 expressed in baculovirus expression system incubated for 1 hr by TR-FRET assay.
For assay [6], the target named is Vascular endothelial growth factor receptor 2 (Homo sapiens, UniProt P35968). Kind of assay: Binding affinity to recombinant human full length N-terminal GST-tagged KDR (790 to 1356 residues) expressed in baculovirus expression system using CSKtide as substrate incubated for 1 hr by TR-FRET assay.
The target of assay [7] is Phosphorylase b kinase gamma catalytic chain, liver/testis isoform (Homo sapiens, UniProt P15735). In words: Binding affinity to recombinant full-length N-terminal His-FLAG-GST-tagged PHKG2 (unknown origin) expressed in baculovirus infected Sf9 insect cells incubated for 1 hr by TR-FRET assay.
The target in assay [8] is Activated CDC42 kinase 1 (Homo sapiens, UniProt Q07912). Kind of assay: Binding affinity to recombinant N-terminal His-FLAG-GST-tagged TNK2 (unknown origin) (110 to 476 residues) expressed in baculovirus infected Sf9 insect cells incubated for 1 hr by TR-FRET assay.
For assay [9], the target named is Serine/threonine-protein kinase BRSK1 (Homo sapiens, UniProt Q8TDC3). Kind of assay: Binding affinity to recombinant full-length N-terminal His-FLAG-GST-tagged BRSK1 (unknown origin) expressed in baculovirus infected Sf9 insect cells incubated for 1 hr by TR-FRET assay.
Assay [10] concerns the target ALK tyrosine kinase receptor (Homo sapiens, UniProt Q9UM73). Kind of assay: Binding affinity to recombinant human […] N-terminal GST-tagged ALK (1058 to 1620 residues) expressed in baculovirus expression system using Srctide as substrate incubated for 1 hr by TR-FRET assay.
For assay [11], the target named is Death-associated protein kinase 3 (Homo sapiens, UniProt O43293). In words: Binding affinity to recombinant full-length N-terminal His-FLAG-GST-tagged DAPK3 (unknown origin) expressed in baculovirus infected Sf9 insect cells incubated for 1 hr by TR-FRET assay.
Assay [12] deals with Mitogen-activated protein kinase kinase kinase 5 (Homo sapiens, UniProt Q99683). In words: Binding affinity to recombinant full-length N-terminal His-FLAG-GST-tagged MAP3K5 (unknown origin) (654 to 971 residues) expressed in baculovirus infected Sf9 insect cells incubated for 1 hr by TR-FRET assay.
Assay [13] has as its target Protein kinase C zeta type (Homo sapiens, UniProt Q05513). Kind of assay: Binding affinity to recombinant full-length N-terminal His-FLAG-GST-tagged PRKCZ (unknown origin) expressed in baculovirus infected Sf9 insect cells incubated for 1 hr by TR-FRET assay.
The target in assay [14] is cGMP-dependent protein kinase 1 (Homo sapiens, UniProt Q13976). Kind of assay: Binding affinity to recombinant full-length N-terminal His-FLAG-tagged PRKG1 (unknown origin) expressed in baculovirus infected Sf9 insect cells incubated for 1 hr by TR-FRET assay.
Assay [15] concerns the target Vascular endothelial growth factor receptor 3 (Homo sapiens, UniProt P35916). In words: Binding affinity to recombinant N-terminal His-FLAG-GST-tagged FLT4 (unknown origin) (798 to 1298 residues) expressed in baculovirus infected Sf9 insect cells incubated for 1 hr by TR-FRET assay.
Assay [16] has as its target Dual specificity protein kinase CLK4 (Homo sapiens, UniProt Q9HAZ1). Kind of assay: Binding affinity to recombinant human full length N-terminal GST-tagged CLK4 expressed in baculovirus expression system incubated for 1 hr by TR-FRET assay.
In assay [17] the target is Serine/threonine-protein kinase MRCK alpha (Homo sapiens, UniProt Q5VT25). In words: Binding affinity to recombinant full-length N-terminal His-FLAG-GST-tagged CDC42BPA (unknown origin) (1 to 574 residues) expressed in baculovirus infected Sf9 insect cells incubated for 1 hr by TR-FRET assay.
The target in assay [18] is Tyrosine-protein kinase Yes (Homo sapiens, UniProt P07947). In words: Binding affinity to recombinant full-length N-terminal His-FLAG-GST-tagged YES1 (unknown origin) expressed in baculovirus infected Sf9 insect cells incubated for 1 hr by TR-FRET assay.
Assay [19] addresses Mitogen-activated protein kinase kinase kinase 9 (Homo sapiens, UniProt P80192). In words: Binding affinity to recombinant N-terminal His-FLAG-GST-tagged MAP3K9 (unknown origin) (110 to 422 residues) expressed in baculovirus infected Sf9 insect cells incubated for 1 hr by TR-FRET assay.
The target in assay [20] is Tyrosine-protein kinase Blk (Homo sapiens, UniProt P51451). Kind of assay: Binding affinity to recombinant human full length N-terminal GST-tagged BLK expressed in baculovirus expression system using srctide as substrate incubated for 1 hr by TR-FRET assay.
Assay [21] addresses 3-phosphoinositide-dependent protein kinase 1 (Homo sapiens, UniProt O15530). In words: Binding affinity to recombinant full-length N-terminal His-FLAG-GST-tagged PDPK1 (unknown origin) expressed in baculovirus infected Sf9 insect cells incubated for 1 hr by TR-FRET assay.
For assay [22], the target named is Angiopoietin-1 receptor (Homo sapiens, UniProt Q02763). Kind of assay: Binding affinity to recombinant full-length N-terminal His-FLAG-GST-tagged TEK (unknown origin) (771 to 1124 residues) expressed in baculovirus infected Sf9 insect cells incubated for 1 hr by TR-FRET assay.
Assay [23] deals with Serine/threonine-protein kinase 25 (Homo sapiens, UniProt O00506). In words: Binding affinity to recombinant full-length N-terminal His-FLAG-GST-tagged STK25 (unknown origin) expressed in baculovirus infected Sf9 insect cells incubated for 1 hr by TR-FRET assay.
Assay [24] concerns the target Serine/threonine-protein kinase SIK1 (Homo sapiens, UniProt P57059). In words: Binding affinity to recombinant full-length N-terminal His-FLAG-tagged SIK1 (unknown origin) expressed in baculovirus infected Sf9 insect cells incubated for 1 hr by TR-FRET assay.

Experimental findings from ChEMBL document CHEMBL4321812, “Structure-based rational design of staurosporine-based fluorescent probe with broad-ranging kinase affinity for kinase panel application” (Bioorg Med Chem Lett, 2019) are described below.

Usually Kd stands for the equilibrium constant for the complex coming apart.

Chain of Calcium/calmodulin-dependent protein kinase type II subunit beta (Q13554 whole entry): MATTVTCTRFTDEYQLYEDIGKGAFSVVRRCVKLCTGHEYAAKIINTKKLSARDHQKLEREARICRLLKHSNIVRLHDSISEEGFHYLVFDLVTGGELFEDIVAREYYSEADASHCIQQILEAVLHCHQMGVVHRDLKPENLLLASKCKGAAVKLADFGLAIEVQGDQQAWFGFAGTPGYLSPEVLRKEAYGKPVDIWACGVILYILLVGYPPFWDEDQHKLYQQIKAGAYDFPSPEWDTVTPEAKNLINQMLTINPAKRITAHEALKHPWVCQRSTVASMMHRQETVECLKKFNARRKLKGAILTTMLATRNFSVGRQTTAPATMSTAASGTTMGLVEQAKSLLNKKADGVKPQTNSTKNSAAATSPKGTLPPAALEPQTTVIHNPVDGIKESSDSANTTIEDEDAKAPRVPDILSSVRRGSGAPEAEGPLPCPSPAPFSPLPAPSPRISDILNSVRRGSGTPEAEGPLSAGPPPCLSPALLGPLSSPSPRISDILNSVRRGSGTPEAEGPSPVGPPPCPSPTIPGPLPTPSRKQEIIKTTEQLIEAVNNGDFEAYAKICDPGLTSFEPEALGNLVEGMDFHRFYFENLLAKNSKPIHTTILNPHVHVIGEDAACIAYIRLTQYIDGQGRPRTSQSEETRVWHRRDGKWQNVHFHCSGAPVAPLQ
Chain of Mitogen-activated protein kinase kinase kinase 9 (P80192 whole entry, the tested form may be a part): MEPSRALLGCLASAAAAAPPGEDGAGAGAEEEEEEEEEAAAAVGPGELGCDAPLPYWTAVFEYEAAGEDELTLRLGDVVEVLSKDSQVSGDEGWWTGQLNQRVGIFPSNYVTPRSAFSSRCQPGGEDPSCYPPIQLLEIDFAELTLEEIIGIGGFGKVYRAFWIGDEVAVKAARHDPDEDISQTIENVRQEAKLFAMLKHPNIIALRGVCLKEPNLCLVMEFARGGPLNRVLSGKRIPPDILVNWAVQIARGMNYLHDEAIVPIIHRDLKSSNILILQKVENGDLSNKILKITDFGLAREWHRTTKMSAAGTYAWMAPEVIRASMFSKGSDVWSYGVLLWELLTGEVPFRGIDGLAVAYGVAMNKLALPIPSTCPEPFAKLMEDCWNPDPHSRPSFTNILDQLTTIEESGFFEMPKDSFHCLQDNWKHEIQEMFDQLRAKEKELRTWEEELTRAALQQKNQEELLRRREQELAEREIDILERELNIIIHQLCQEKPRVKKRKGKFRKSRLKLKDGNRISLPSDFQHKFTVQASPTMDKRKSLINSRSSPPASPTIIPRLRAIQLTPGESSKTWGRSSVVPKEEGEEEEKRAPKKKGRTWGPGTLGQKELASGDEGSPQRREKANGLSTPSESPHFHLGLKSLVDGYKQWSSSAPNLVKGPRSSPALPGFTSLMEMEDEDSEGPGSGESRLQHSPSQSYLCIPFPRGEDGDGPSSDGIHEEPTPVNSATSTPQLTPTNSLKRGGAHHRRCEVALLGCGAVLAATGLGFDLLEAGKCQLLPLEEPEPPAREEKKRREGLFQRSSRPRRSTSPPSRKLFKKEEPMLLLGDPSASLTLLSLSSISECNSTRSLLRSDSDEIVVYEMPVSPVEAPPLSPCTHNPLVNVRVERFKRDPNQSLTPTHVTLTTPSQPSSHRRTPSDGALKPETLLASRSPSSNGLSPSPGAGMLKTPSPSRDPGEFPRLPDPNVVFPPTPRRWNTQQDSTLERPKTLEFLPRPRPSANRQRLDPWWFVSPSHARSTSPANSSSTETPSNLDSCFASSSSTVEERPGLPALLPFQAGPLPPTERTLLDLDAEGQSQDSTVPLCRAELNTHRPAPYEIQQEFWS
Chain of Phosphorylase b kinase gamma catalytic chain, liver/testis isoform (P15735 whole entry, the tested form may be a part, canonical isoform): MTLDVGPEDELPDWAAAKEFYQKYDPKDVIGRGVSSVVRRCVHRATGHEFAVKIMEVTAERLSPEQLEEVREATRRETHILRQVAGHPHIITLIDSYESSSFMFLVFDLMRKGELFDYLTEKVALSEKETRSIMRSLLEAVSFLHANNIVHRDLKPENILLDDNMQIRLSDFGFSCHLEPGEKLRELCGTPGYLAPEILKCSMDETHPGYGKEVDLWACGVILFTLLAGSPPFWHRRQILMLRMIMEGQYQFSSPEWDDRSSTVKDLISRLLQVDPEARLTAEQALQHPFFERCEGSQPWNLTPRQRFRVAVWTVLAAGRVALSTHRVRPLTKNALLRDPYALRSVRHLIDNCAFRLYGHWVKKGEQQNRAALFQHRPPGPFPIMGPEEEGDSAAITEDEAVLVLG
Chain of Angiopoietin-1 receptor (Q02763 whole entry, the tested form may be a part): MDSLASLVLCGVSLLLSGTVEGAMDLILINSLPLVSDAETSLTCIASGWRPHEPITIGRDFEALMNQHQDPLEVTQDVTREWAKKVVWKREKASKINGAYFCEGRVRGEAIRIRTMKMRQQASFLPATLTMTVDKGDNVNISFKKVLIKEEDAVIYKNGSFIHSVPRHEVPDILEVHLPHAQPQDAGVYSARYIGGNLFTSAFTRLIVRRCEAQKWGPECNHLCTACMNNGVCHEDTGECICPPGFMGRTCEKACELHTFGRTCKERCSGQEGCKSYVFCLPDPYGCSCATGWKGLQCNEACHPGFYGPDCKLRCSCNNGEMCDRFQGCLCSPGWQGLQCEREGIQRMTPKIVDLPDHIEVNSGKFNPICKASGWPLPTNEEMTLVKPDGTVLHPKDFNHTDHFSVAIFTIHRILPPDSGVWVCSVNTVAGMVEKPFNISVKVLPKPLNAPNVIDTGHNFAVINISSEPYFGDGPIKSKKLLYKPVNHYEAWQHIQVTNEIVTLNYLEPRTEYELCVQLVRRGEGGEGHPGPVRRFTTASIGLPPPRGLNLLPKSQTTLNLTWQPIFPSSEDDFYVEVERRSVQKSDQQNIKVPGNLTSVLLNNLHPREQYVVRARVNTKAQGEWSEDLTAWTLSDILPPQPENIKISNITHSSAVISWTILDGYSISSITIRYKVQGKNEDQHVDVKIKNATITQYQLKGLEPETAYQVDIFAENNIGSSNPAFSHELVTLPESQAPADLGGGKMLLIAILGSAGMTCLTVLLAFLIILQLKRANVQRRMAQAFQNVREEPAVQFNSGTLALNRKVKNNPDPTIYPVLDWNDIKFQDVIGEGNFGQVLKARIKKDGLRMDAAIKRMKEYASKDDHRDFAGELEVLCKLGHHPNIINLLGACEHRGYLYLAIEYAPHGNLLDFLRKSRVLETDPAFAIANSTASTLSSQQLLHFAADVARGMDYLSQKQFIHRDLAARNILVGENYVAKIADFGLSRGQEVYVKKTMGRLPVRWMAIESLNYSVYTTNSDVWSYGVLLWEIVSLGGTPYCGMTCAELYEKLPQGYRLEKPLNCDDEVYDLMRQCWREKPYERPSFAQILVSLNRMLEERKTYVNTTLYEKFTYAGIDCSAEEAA
Chain of Vascular endothelial growth factor receptor 2 (P35968 whole entry, the tested form may be a part, canonical isoform): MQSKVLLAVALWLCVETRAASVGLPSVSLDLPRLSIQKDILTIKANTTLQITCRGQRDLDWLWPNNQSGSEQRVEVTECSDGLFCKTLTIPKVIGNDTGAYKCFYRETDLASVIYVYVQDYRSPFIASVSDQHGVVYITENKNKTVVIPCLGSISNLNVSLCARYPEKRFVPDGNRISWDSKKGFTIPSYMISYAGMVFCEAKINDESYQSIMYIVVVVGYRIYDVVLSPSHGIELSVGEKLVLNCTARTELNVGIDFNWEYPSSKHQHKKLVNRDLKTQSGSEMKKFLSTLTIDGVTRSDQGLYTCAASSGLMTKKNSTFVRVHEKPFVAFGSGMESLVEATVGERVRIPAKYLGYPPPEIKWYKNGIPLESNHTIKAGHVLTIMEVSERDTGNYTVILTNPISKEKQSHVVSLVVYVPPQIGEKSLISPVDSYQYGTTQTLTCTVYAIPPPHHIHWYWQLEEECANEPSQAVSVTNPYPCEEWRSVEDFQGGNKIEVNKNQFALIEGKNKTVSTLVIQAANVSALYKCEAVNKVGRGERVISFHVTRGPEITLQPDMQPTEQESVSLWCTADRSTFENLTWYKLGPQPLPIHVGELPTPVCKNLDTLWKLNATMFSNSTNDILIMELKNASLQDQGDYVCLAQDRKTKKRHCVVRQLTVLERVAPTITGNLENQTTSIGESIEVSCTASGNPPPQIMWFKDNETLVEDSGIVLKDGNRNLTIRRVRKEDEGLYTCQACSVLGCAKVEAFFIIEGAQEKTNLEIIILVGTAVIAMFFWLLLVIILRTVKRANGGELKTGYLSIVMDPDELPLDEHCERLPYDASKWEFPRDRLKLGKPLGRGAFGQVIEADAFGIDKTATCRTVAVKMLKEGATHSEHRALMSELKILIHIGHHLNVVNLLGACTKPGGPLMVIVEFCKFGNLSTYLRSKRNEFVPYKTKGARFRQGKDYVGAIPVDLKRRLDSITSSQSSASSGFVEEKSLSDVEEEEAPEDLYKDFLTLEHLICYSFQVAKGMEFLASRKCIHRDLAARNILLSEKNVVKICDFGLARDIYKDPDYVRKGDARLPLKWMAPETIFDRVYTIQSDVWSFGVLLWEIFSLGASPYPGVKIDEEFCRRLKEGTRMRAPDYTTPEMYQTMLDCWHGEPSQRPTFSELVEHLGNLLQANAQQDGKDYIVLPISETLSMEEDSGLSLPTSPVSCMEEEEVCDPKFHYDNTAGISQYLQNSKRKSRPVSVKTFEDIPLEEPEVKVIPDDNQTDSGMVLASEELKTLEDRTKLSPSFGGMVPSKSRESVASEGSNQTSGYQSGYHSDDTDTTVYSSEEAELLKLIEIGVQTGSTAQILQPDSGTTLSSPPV
Chain of Serine/threonine-protein kinase 25 (O00506 whole entry): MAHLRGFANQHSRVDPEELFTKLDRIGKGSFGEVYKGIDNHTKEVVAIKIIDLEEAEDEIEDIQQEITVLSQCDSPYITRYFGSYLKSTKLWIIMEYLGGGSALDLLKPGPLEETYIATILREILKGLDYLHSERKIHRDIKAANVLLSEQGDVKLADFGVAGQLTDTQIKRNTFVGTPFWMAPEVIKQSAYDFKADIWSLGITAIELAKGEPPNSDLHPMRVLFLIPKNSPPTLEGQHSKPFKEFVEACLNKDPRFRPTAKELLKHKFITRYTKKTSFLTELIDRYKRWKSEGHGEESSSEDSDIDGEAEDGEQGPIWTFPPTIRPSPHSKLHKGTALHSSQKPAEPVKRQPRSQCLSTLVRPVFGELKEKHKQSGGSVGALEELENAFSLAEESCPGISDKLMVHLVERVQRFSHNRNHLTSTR

For `CO[C@@H]1[C@H](N(C)CCOCCOCCOCCNC(=O)CCC2=[N+]3C(=Cc4c(C)cc(C)n4[B-]3(F)F)C=C2)C[C@H]2O[C@]1(C)n1c3ccccc3c3c4c(c5c6ccccc6n2c5c31)C(=O)NC4`, the Kd in assay [1] worked out at 53 nM; in assay [2], 19 nM; in assay [3], 12 nM; in assay [4], 6 nM; in assay [5] it was 15 nM; in assay [6] it was 135 nM. In addition, the dissociation constant Kd is 72 nM in [7]; 42 nM in [8]; 194 nM in [9]; 172 nM in [10]; 25 nM in assay [11]; 248 nM in [12]. In addition, the Kd is 1350 nM in assay [13]; 85 nM in assay [14]; 78 nM in assay [15]; 81 nM in assay [16]; 25 nM in assay [17]; over 2000 nM in assay [18]. The equilibrium dissociation constant (Kd) in assay [19] worked out at 3 nM; in [20], 45 nM; in assay [21] it was 8 nM; in [22], 408 nM; in assay [23], 443 nM; in assay [24], 3 nM.

In the case of `CO[C@@H]1[C@H](NCCOCCOCCOCCNC(=O)CCC2=[N+]3C(=Cc4c(C)cc(C)n4[B-]3(F)F)C=C2)C[C@H]2O[C@]1(C)n1c3ccccc3c3c4c(c5c6ccccc6n2c5c31)C(=O)NC4`, the dissociation constant Kd is 38 nM in assay [1]; 24 nM in assay [2]; 19 nM in [3]; 11 nM in assay [4]; 13 nM in assay [5]; 193 nM in [6]. Moreover, the dissociation constant (Kd) in assay [7] was 71 nM; in assay [8], 36 nM; in assay [9] it was 109 nM; in [10], 230 nM; in assay [11], 41 nM; in [12], 136 nM. Also, the Kd in assay [13] was determined as 1250 nM; in assay [14], 109 nM; in assay [15] it was 61 nM; in assay [16] it was 90 nM; in [17], 43 nM; in assay [18], 601 nM. Further, the Kd in [19] was 2 nM; in assay [20] it was 63 nM; in [21] it was 8 nM; in assay [22], 395 nM; in [23], 444 nM; in [24] it was 3 nM.
